Assay results as given in the SangsterLogP compilation.

Assay: method code G-GLC, from Larsen, B. R., Skejo-Andreasen, H., & Pérez, A. P. (1992). Octanol-water partition coefficients of 39 polychlorinated biphenyls in an Askarel mixture. Fresenius Envir. Bull. I (Supplementum), S13-18.

Structure (SMILES): Clc1ccc(Cl)c(-c2c(Cl)c(Cl)cc(Cl)c2Cl)c1
- logP: 6.45

Structure (SMILES): Clc1ccc(Cl)c(-c2ccc(Cl)c(Cl)c2)c1
- logP: 5.99

Structure (SMILES): Clc1ccc(-c2cccc(Cl)c2Cl)cc1
- logP: 5.63

Structure (SMILES): Clc1cc(Cl)c(-c2c(Cl)ccc(Cl)c2Cl)c(Cl)c1Cl
- logP: 6.76

Structure (SMILES): Clc1cc(Cl)c(-c2cccc(Cl)c2Cl)cc1Cl
- logP: 6.28

Structure (SMILES): Clc1ccc(Cl)c(-c2c(Cl)ccc(Cl)c2Cl)c1
- logP: 6.08

Structure (SMILES): Clc1ccc(Cl)c(-c2cc(Cl)ccc2Cl)c1
- logP: 5.81

Structure (SMILES): Clc1ccc(-c2ccc(Cl)c(Cl)c2Cl)c(Cl)c1Cl
- logP: 6.62

Structure (SMILES): Clc1ccc(-c2ccc(Cl)c(Cl)c2Cl)cc1
- logP: 5.95

Structure (SMILES): Clc1ccc(-c2c(Cl)ccc(Cl)c2Cl)cc1Cl
- logP: 6.22
